The structures appear in SMILES notation. Where a name gives a salt, the structure may show the parent alone.

System in the first data set: not given
Experiment: not given
Settings: not given
`CC(C)(C)OC(=O)N1CCC(c2c[nH]c3ccccc23)CC1` [Example 1, tert-butyl 4-(1H-indol-3-yl)-1-piperidinecarboxylate] yielded a melting point of 159 to 160 °C.
The same measure, in the same setting: the figure for `CC(C)(C)OC(=O)N1CCC(c2cn(S(C)(=O)=O)c3ccccc23)CC1` [Example 4, tert-butyl 4-[1-(methylsulfonyl)-1H-indol-3-yl]-1-piperidinecarboxylate] is 136 to 137 °C.

A further data set has as its system calvaria from 5-day-old ICR mice. The data set is described as follows: Assay using mouse calvarial organ culture (calvaria bone formation assay). In kind it is cell-based. As to conditions: test compound 1.0 × 10^−5 M added in combination with TGF-beta1; new bone area by histomorphometry after 1 week culture. As for the experimental part: Assay using Mouse Calvarial Organ Culture
Calvaria bone formation assay was essentially performed as described by Bonewald et al. (Endocrinology 139:3178, 1998). The calvaria from 5-day-old ICR mice were excised and cut in half along the sagittal suture. Each half of the calvaria was placed on a stainless steel grid in a 12-well tissue culture dish. Each well contained BGJ media (Sigma) supplemented with 0.1% bovine serum albumine, to which the test compound was added in combination with TGF-beta1. The media was changed 24 and 96 hrs. Calvaria were maintained in humidified air (5% CO2) at 37° C. for 1 week. The calvaria were then fixed overnight in formalin, decalcified in EDTA, and were then embedded in paraffin wax. Calvaria sections were stained with hematoxylin and eosin. Histomorphometric analysis was performed using the Image-pro Plus (Trade mark, Media Cybernetics). The sum of the new bone area was determined. Rate of increase was calculated in the following; [formula] • Calvaria area is calculated using Histomorphometric analysis. • Ats: Score of area in case of addition of test compound and TGF beta1 • Atg: Score of area in case of addition of TGF beta1 • Ac: Score of area in case of no addition (Control)
In the case of `Cc1ccc(Cn2cc(C3CCNCC3)c3ccccc32)cc1C` [9-(5)], the Rate of increase worked out at 180%.
`COC(=O)c1cccc(Cn2cc(C3CCNCC3)c3ccccc32)c1` [9-(18)]: the Rate of increase is 158%.
On the same count and under the same terms, the figure for `CC(C)(C)OC(=O)NCCCCCCCN1CCC(c2c[nH]c3ccc(O)cc23)CC1` [40-(3), 3-[1-(7-tert-butoxycarbonylaminoheptyl)-4-piperidinyl]-5-hydroxy-1H-indole] is 140%.
On the same count and under the same terms, next, `COc1ccc(Cn2cc(C3CCN(C(=O)OC(C)(C)C)CC3)c3ccc(C#N)cc32)cc1Cl` [46-(4)]: 203%; `COc1ccc(Cn2cc(C3CCNCC3)c3ccc(C#N)cc32)cc1Cl.Cl` [49-(6), 1-(3-Chloro-4-methoxybenzyl)-6-cyano-3-(4-piperidinyl)-1H-indole hydrochloride]: 112%; `CS(=O)(=O)c1ccc(Cn2cc(C3CCNCC3)c3ccccc32)cc1` [Example 7, 1-[4-(methylsulfonyl)benzyl]-3-(4-piperidinyl)-1H-indole hydrochloride]: 206%.

In general, melting point refers to the temperature, or range, at which the solid turns liquid.
